Series [1] relates to experimental necrosis of myocardium caused by introduction of adrenaline. Nature of the series: histological analysis of experimental necrosis of myocardium caused by adrenaline. It counts as in vivo, rats of the Wistar line. The following applies: for changes in cardiomyocytes / changes in interstitial tissue / changes in vessels: 25 mg/kg. As for the experimental part:
A comparative study of the effects produced by the preparation according to the present invention and finoptin on an experimental necrosis of myocardium caused by introduction of adrenaline.
The experiments were carried out on rats of the Wistar line of gregarious keeping, both sexes, with a mass of 170 to 225 g. Each preparation was studied on a separate group of animals: (group of adrenaline-control, group of finoptin, group of the preparation according to the present invention). 72 rats were used in the experiments altogether. Injuries of myocardium were caused by way of a single-time subcutaneous administration of a 0.1% solution of adrenaline hydrochloride in the dose of 3 mg per kg of the rat's bodyweight. […] The preparation of this invention was administered subcutaneously, finoptin-per os. On the first day of the experiment the preparations were administered 30 minutes after injection of adrenaline hydrochloride. The experiment lasted for 19 days. Slaughters were effected on the 4th, 8th, 12th and 19th day of the experiment. The animals were decapitated. The heart was fixed in a 10% solution of neutral formalin and sealed in paraffin. Serial sections with the thickness of 5-6μ were coloured by Ehrlich hematoxylin-eosin. The state of vessels of myocardium, cardiomyocytes and interstitial tissue were evaluated by histological analysis.

Series [2] deals with neoepinephrine model of infarction (focal necrosis) of myocardium in rats. Nature of the series: survival of rats with the neoepinephrine model of infarction. It counts as in vivo, rats of the Wistar line. As to conditions: 25 mg/kg subcutaneously, 7 days; for Percentage of survival: after 19 days; for Number of survived animals after 19 days: groups initially 12 animals. As for the experimental part: The study of the effect produced by the preparation according to the present invention on survival of animals with a neoepinephrine model of infarction was effected in comparison with the prior art preparations--obzidan and finoptin.
The formation of a neoepinephrine model of infarction (focal necrosis) of myocardium in rats was effected by way of an every-day subcutaneous administration of a 0.1% solution of neoepinephrine in the dose of 3 mg/kg for 7 days to rats of the Wistar line with a mass of 160-200 g. The test preparations were subcutaneously administered to the rats in the form of a 1.25% aqueous solution in the dose of 25 mg/kg 0.5 hour after injection of neoepinephrine also for 7 days.

Series [3] has as its system arterial pressure of rats with spontaneous hypertension. Nature of the series: hypotensive effect, intraperitoneal, spontaneously hypertensive rats. It counts as in vivo. As for the experimental part:
The study of the hypotensive effect was carried out in experiments on spontaneously hypertensive male rats of the Akamoto-Aoki line aged 20-25 weeks. The prior art preparation-nifedipine was used for the purpose of comparison. The measurement of the arterial pressure was effected on the tail vein of the rats by the indirect method. The animals were divided into groups (10 in each) and trained for two weeks with the view to ensure their adaptation to the unit for the measurement of the arterial pressure. The level of the arterial pressure prior to administration of the test preparations was measured three times: two days, one day and directly prior to administration of the test preparations. The preparation was administered in the form of a 2.5% aqueous solution, nifedipine--in the form of a 2.5% suspension in Twin-80 intraperitoneally. […]

The conditions of series [4]: background; cited from earlier work.
Series [5] has as its system arterial pressure of spontaneously hypertensive rats. Nature of the series: effect of the oral form on arterial pressure, spontaneously hypertensive rats. It counts as in vivo. As to conditions: 10 mg/kg.
The conditions of series [6]: background; cited from earlier work. This is another data set of the same source.
Where [7] appears, read: 4th day, grade/number of animals (6).
Where [8] appears, read: 8th day, grade/number of animals (6).
[9] abbreviates: 12th day, grade/number of animals (6).
Where [10] appears, read: 19th day, grade/number of animals (5).
Setting [11] is: 1 mg/kg intraperitoneally, 30 minutes.
[12] abbreviates: 1 mg/kg intraperitoneally, 1 hour.
The mark [13] stands for this setting: 1 mg/kg intraperitoneally, 2 hours.
Where [14] appears, read: 1 mg/kg intraperitoneally, 4 hours.
Setting [15] is: 1 mg/kg intraperitoneally, 24 hours.

Entries after “also recorded” stand apart in the source; their conditions may differ.

On to `COc1ccc(CCN(C)CCCC(C#N)(c2ccc(OC)c(OC)c2)C(C)C)cc1OC` (stereo not drawn) [Finoptin, reference compound], for which, in series [1] (4th day), the “changes in cardiomyocytes” value was “Necrosis and eosinophilia, as well as contracture alterations of muscular cells are observed in a half of the studied animals”; the “changes in interstitial tissue” value is “edema is decreased, in a half of the animals a diffusive round-cell infiltration is observed, the formation of granulomae is similar to that of the animals of the control group”; the “changes in vessels” value was “injuries of the vascular system are less clearly pronounced as compared to adrenaline; non-uniform distribution of endothelium and infiltration of adventita of arteries with lymphoid cells are insignificant”. Besides, in series [1] (setting [7]), the “necrobiotic regions in the wall” value is recorded as 0/6, the “necrosis of more than 5 cells” value is on record as 0/6 and the “wall necrosis (vessels)” value is given as 0/6. In series [1] (8th day), the “changes in cardiomyocytes” value was “granular-lumpy decomposition, eosinophilia and contructure type pathology are more pronounced than in the group of animals administered with the preparation according to the present invention, but less pronounced as compared to the control group (adrenaline)”; the “changes in interstitial tissue” value is “a more intensive growth of the scarring tissue is observed as compared to the group of animals administered with the preparation according to the present invention and an insignificant decrease as compared to the control group (adrenaline)”. Moreover, in series [1] (setting [8]), the diffusive round-cell infiltration is listed as 0/6, the “edema (interstitial tissue)” value is on record as 0/6, the “necrobiotic regions in the wall” value is 0/6 and the “necrosis of more than 5 cells” value is recorded as 0/6. Moreover, in series [1] (setting [8]), the “nuclei (pyknosis)” value is reported as 0/6, the “plethora of the vessels” value is listed as 0/6 and the “wall necrosis (vessels)” value was 0/6. Also, in series [1] (12th day), the “changes in cardiomyocytes” value is “Eosinophilia is retained and the contructure type changes are more clearly pronounced than in the group administered with the preparation according to the present invention”; the “changes in interstitial tissue” value was “an intensive formation of the scarring tissue occurs more noticeably than in the group of animals administered with the preparation according to the present invention”; the “changes in vessels” value is reported as “certain changes are observed on the part of endothelial cells (swelling)”. In addition, in series [1] (setting [9]), the “Nuclei (pykhnosis)” value is listed as 0/6, the diffusive round-cell infiltration is 0/6, the “edema (interstitial tissue)” value was 0/6 and the “infiltration of the adventitia with lymphoid cells” value is on record as 0/5. In series [1] (setting [9]), the “necrobiotic regions with changes in the vessel wall” value was 0/6, the “necrosis of more than 5 cells” value was 0/6, the “plethora of the vessels” value is reported as 0/6 and the “wall necrosis (vessels)” value was 0/6. For the same compound, in series [1] (19th day), the “changes in cardiomyocytes” value is “By the 19th day these changes are getting less noticeable; also recorded: In half of the animals a moderately pronounced granular-lumpy decomposition is retained along with eosinophilia, cell necroses and contructure type changes”; the “changes in vessels” value is on record as “no changes are detected on the part of the coronary vessels”. In series [1] (setting [10]), the “infiltration of the adventitia with lymphoid cells” value was 0/5, the “necrobiotic regions with changes in the vessel wall” value was 0/5, the “necrosis of more than 5 cells” value was 0/5 and the “nuclei (pyknosis)” value is on record as 0/5. Further, in series [1] (setting [10]), the “plethora of the vessels” value is 0/5. In series [2], the Percentage of survival worked out at 50% and the “Number of survived animals after 19 days” value is 6.
As for `COC(=O)C1=C(C)NC(C)=C(C(=O)OC)C1c1ccccc1[N+](=O)[O-]` [Nifedipine, reference compound], the “Variation of arterial pressure, diastolic” value in series [3] (setting [11]) is recorded as -8 % of the initial; in series [3] (setting [12]) it was -14 % of the initial; in series [3] (setting [13]), -21 % of the initial; in series [3] (setting [14]), -31 % of the initial; in series [3] (setting [15]), 0 % of the initial; in series [5] (30 minutes) it was -14 % of the initial. Moreover, the “Variation of arterial pressure, diastolic” value in series [5] (1 hour) is recorded as -18 % of the initial; in series [5] (2 hours) it was -16 % of the initial; in series [5] (4 hours) it was -20 % of the initial; in series [5] (24 hours), 0 % of the initial. Moreover, the “Variation of arterial pressure, systolic” value in series [3] (setting [11]) was -4 % of the initial; in series [3] (setting [12]), -11 % of the initial; in series [3] (setting [13]) it was -8 % of the initial; in series [3] (setting [14]), -11 % of the initial; in series [3] (setting [15]) it was 0 % of the initial; in series [5] (30 minutes), -10 % of the initial. Also, the “Variation of arterial pressure, systolic” value was -14 % of the initial in series [5] (1 hour), -10 % of the initial in series [5] (2 hours), -18 % of the initial in series [5] (4 hours) and 0 % of the initial in series [5] (24 hours). Moreover, in series [3] (setting [11]), the “lowering of diastolic pressure” value came out at 7.6%. In series [3] (setting [11]), the “lowering of systolic pressure” value was 4.3%. Moreover, the “effect upon expiration of 8 hours” value in series [3] (8 hours) is given as “substantially discontinued”. Further, the duration of effect in series [4] was at most 8 h.
Turning to `CC(C)NCC(O)COc1cccc2ccccc12` (stereo not drawn) [Obzidan], in series [2], the Percentage of survival was 50% and the “Number of survived animals after 19 days” value came out at 6.
Regarding `CC(C)NCC(O)COc1cccc2ccccc12` (stereo not drawn) [inderal], the inotropic effect result in series [6] was “negative inotropic effect”.
Regarding `C=CCOc1ccccc1OCC(O)CNC(C)C` (stereo not drawn) [oxyprenolol], the inotropic effect entry in series [6] is on record as “negative inotropic effect”.

The values above are taken from patent US4568689A, “Pharmaceutical preparation for the treatment of hypertensive disease and myocardial infarction” (priority 1983, dated 1986).
